Reference: ChEMBL document CHEMBL3885881, “DrugMatrix”

Organism: Rattus norvegicus
Test: DrugMatrix - Regimen: Daily Repeat
Assay type: toxicity, organism-based, Sprague-Dawley
Design: regimen Daily Repeat, gender Male, age 6-8 weeks
Conditions: in vivo, po, route oral GAVAGE, vehicle .5 % CMC; for BASOPHIL / EOSINOPHIL / ERYTHROCYTE COUNT / HEMATOCRIT / HEMOGLOBIN / LEUKOCYTE COUNT / LYMPHOCYTE / MEAN CORPUSCULAR HEMOGLOBIN / MEAN CORPUSCULAR HEMOGLOBIN CONCENTRATION / MEAN CORPUSCULAR VOLUME / MONOCYTE / NEUTROPHIL / PLATELET COUNT: tissue Blood; for ALANINE AMINOTRANSFERASE / ALBUMIN / ALKALINE PHOSPHATASE / ASPARTATE AMINOTRANSFERASE / BLOOD UREA NITROGEN / CHLORIDE / CHOLESTEROL / CREATINE PHOSPHOKINASE / CREATININE / GLUCOSE / PHOSPHORUS / SODIUM / TOTAL PROTEIN: tissue Plasma
[1] = 0 mg/kg, 72 h, dose level Control, time 3 day
[2] = 0 mg/kg, 120 h, dose level Control, time 5 day
[3] = 10 mg/kg, 72 h, dose level Low, time 3 day
[4] = 10 mg/kg, 120 h, dose level Low, time 5 day
[5] = 2000 mg/kg, 72 h, dose level High, time 3 day
[6] = 2000 mg/kg, 120 h, dose level High, time 5 day

For CCn1cc(C(=O)O)c(=O)c2cc(F)c(N3CCNC(C)C3)c(F)c21 (stereo unspecified) [LOMEFLOXACIN], the BASOPHIL [1] was 0%, the EOSINOPHIL [1] was 0.4% and the “ERYTHROCYTE COUNT” value [1] was 6.43 x10E6/uL. The HEMATOCRIT [1] was 37.36%, the HEMOGLOBIN [1] was 13.98 G/DL and the “LEUKOCYTE COUNT” value [1] was 13 x10E3/uL. For the same compound, the LYMPHOCYTE [1] was 81.4%, the “MEAN CORPUSCULAR HEMOGLOBIN” value [1] was 21.9 pg and the “MEAN CORPUSCULAR HEMOGLOBIN CONCENTRATION” value [1] was 37.4 G/DL. For the same compound, the “MEAN CORPUSCULAR VOLUME” value [1] was 58.52 fL, the MONOCYTE [1] was 0.4% and the NEUTROPHIL [1] was 18%. The “PLATELET COUNT” value [1] was 1386 x10E3/uL, the “ALANINE AMINOTRANSFERASE” value [1] was 39.33 u/L and the ALBUMIN [1] was 3.57 G/DL. For the same compound, the “ALKALINE PHOSPHATASE” value [1] was 283.83 u/L, the “ASPARTATE AMINOTRANSFERASE” value [1] was 69.5 u/L and the “BLOOD UREA NITROGEN” value [1] was 14.83 mg/dL. The CHLORIDE [1] was 107.33 MEQ/L, the CHOLESTEROL [1] was 75.17 mg/dL and the “CREATINE PHOSPHOKINASE” value [1] was 107.67 u/L. The CREATININE [1] was 0.48 mg/dL, the GLUCOSE [1] was 172.5 mg/dL and the PHOSPHORUS [1] was 10.48 mg/dL. The SODIUM [1] was 152.33 MEQ/L, the “TOTAL PROTEIN” value [1] was 5.9 G/DL and the BASOPHIL [2] was 0%. For the same compound, the EOSINOPHIL [2] was 0.4%, the “ERYTHROCYTE COUNT” value [2] was 6.96 x10E6/uL and the HEMATOCRIT [2] was 41.12%. For the same compound, the HEMOGLOBIN [2] was 15.24 G/DL, the “LEUKOCYTE COUNT” value [2] was 11.06 x10E3/uL and the LYMPHOCYTE [2] was 88.6%. The “MEAN CORPUSCULAR HEMOGLOBIN” value [2] was 21.96 pg, the “MEAN CORPUSCULAR HEMOGLOBIN CONCENTRATION” value [2] was 37.1 G/DL and the “MEAN CORPUSCULAR VOLUME” value [2] was 59.12 fL. For the same compound, the MONOCYTE [2] was 0.2%, the NEUTROPHIL [2] was 10.8% and the “PLATELET COUNT” value [2] was 1155.8 x10E3/uL. The “ALANINE AMINOTRANSFERASE” value [2] was 36.33 u/L, the ALBUMIN [2] was 3.72 G/DL and the “ALKALINE PHOSPHATASE” value [2] was 340.33 u/L. For the same compound, the “ASPARTATE AMINOTRANSFERASE” value [2] was 68.33 u/L, the “BLOOD UREA NITROGEN” value [2] was 15 mg/dL and the CHLORIDE [2] was 108.17 MEQ/L. For the same compound, the CHOLESTEROL [2] was 74.67 mg/dL, the “CREATINE PHOSPHOKINASE” value [2] was 110.67 u/L and the CREATININE [2] was 0.47 mg/dL. For the same compound, the GLUCOSE [2] was 171.33 mg/dL, the PHOSPHORUS [2] was 10.05 mg/dL and the SODIUM [2] was 155.5 MEQ/L. The “TOTAL PROTEIN” value [2] was 6.33 G/DL, the BASOPHIL [3] was 0% and the EOSINOPHIL [3] was 0.33%. For the same compound, the “ERYTHROCYTE COUNT” value [3] was 6.14 x10E6/uL, the HEMATOCRIT [3] was 37.73% and the HEMOGLOBIN [3] was 14.37 G/DL. The “LEUKOCYTE COUNT” value [3] was 14.47 x10E3/uL, the LYMPHOCYTE [3] was 89.33% and the “MEAN CORPUSCULAR HEMOGLOBIN” value [3] was 23.47 pg. For the same compound, the “MEAN CORPUSCULAR HEMOGLOBIN CONCENTRATION” value [3] was 38.1 G/DL, the “MEAN CORPUSCULAR VOLUME” value [3] was 61.53 fL and the MONOCYTE [3] was 0%. For the same compound, the NEUTROPHIL [3] was 10.33%, the “PLATELET COUNT” value [3] was 1193.33 x10E3/uL and the “ALANINE AMINOTRANSFERASE” value [3] was 39 u/L. For the same compound, the ALBUMIN [3] was 3.37 G/DL, the “ALKALINE PHOSPHATASE” value [3] was 307 u/L and the “ASPARTATE AMINOTRANSFERASE” value [3] was 60.67 u/L. The “BLOOD UREA NITROGEN” value [3] was 11.33 mg/dL, the CHLORIDE [3] was 106.67 MEQ/L and the CHOLESTEROL [3] was 65.33 mg/dL. The “CREATINE PHOSPHOKINASE” value [3] was 106 u/L, the CREATININE [3] was 0.53 mg/dL and the GLUCOSE [3] was 175.33 mg/dL. For the same compound, the PHOSPHORUS [3] was 12.17 mg/dL, the SODIUM [3] was 151.67 MEQ/L and the “TOTAL PROTEIN” value [3] was 5.53 G/DL. The BASOPHIL [4] was 0%, the EOSINOPHIL [4] was 0% and the “ERYTHROCYTE COUNT” value [4] was 6.95 x10E6/uL. For the same compound, the HEMATOCRIT [4] was 41.1%, the HEMOGLOBIN [4] was 15.1 G/DL and the “LEUKOCYTE COUNT” value [4] was 16.87 x10E3/uL. The LYMPHOCYTE [4] was 90.67%, the “MEAN CORPUSCULAR HEMOGLOBIN” value [4] was 21.77 pg and the “MEAN CORPUSCULAR HEMOGLOBIN CONCENTRATION” value [4] was 36.73 G/DL. The “MEAN CORPUSCULAR VOLUME” value [4] was 59.17 fL, the MONOCYTE [4] was 0.33% and the NEUTROPHIL [4] was 9%. For the same compound, the “PLATELET COUNT” value [4] was 1212.33 x10E3/uL, the “ALANINE AMINOTRANSFERASE” value [4] was 46.33 u/L and the ALBUMIN [4] was 3.43 G/DL. The “ALKALINE PHOSPHATASE” value [4] was 276.33 u/L, the “ASPARTATE AMINOTRANSFERASE” value [4] was 68 u/L and the “BLOOD UREA NITROGEN” value [4] was 13.67 mg/dL. The CHLORIDE [4] was 105 MEQ/L, the CHOLESTEROL [4] was 70 mg/dL and the “CREATINE PHOSPHOKINASE” value [4] was 104.33 u/L. The CREATININE [4] was 0.57 mg/dL, the GLUCOSE [4] was 159.33 mg/dL and the PHOSPHORUS [4] was 10.67 mg/dL. For the same compound, the SODIUM [4] was 151.67 MEQ/L, the “TOTAL PROTEIN” value [4] was 5.7 G/DL and the BASOPHIL [5] was 0%. For the same compound, the EOSINOPHIL [5] was 0%, the “ERYTHROCYTE COUNT” value [5] was 6.7 x10E6/uL and the HEMATOCRIT [5] was 41%. The HEMOGLOBIN [5] was 15.63 G/DL, the “LEUKOCYTE COUNT” value [5] was 12.43 x10E3/uL and the LYMPHOCYTE [5] was 83%. The “MEAN CORPUSCULAR HEMOGLOBIN” value [5] was 23.33 pg, the “MEAN CORPUSCULAR HEMOGLOBIN CONCENTRATION” value [5] was 38.17 G/DL and the “MEAN CORPUSCULAR VOLUME” value [5] was 61.2 fL. For the same compound, the MONOCYTE [5] was 0.33%, the NEUTROPHIL [5] was 16.67% and the “PLATELET COUNT” value [5] was 1479.67 x10E3/uL. For the same compound, the “ALANINE AMINOTRANSFERASE” value [5] was 32 u/L, the ALBUMIN [5] was 3.53 G/DL and the “ALKALINE PHOSPHATASE” value [5] was 214.33 u/L. The “ASPARTATE AMINOTRANSFERASE” value [5] was 57.67 u/L, the “BLOOD UREA NITROGEN” value [5] was 19 mg/dL and the CHLORIDE [5] was 103.33 MEQ/L. For the same compound, the CHOLESTEROL [5] was 62.67 mg/dL, the “CREATINE PHOSPHOKINASE” value [5] was 126 u/L and the CREATININE [5] was 0.67 mg/dL. The GLUCOSE [5] was 129.33 mg/dL, the PHOSPHORUS [5] was 11.57 mg/dL and the SODIUM [5] was 149.33 MEQ/L. For the same compound, the “TOTAL PROTEIN” value [5] was 5.93 G/DL, the BASOPHIL [6] was 0% and the EOSINOPHIL [6] was 0%. The “ERYTHROCYTE COUNT” value [6] was 6.87 x10E6/uL, the HEMATOCRIT [6] was 40.23% and the HEMOGLOBIN [6] was 15.07 G/DL. For the same compound, the “LEUKOCYTE COUNT” value [6] was 19.9 x10E3/uL, the LYMPHOCYTE [6] was 96.33% and the “MEAN CORPUSCULAR HEMOGLOBIN” value [6] was 21.93 pg. For the same compound, the “MEAN CORPUSCULAR HEMOGLOBIN CONCENTRATION” value [6] was 37.47 G/DL, the “MEAN CORPUSCULAR VOLUME” value [6] was 58.57 fL and the MONOCYTE [6] was 0%. For the same compound, the NEUTROPHIL [6] was 3.67%, the “PLATELET COUNT” value [6] was 1396 x10E3/uL and the “ALANINE AMINOTRANSFERASE” value [6] was 40.67 u/L. For the same compound, the ALBUMIN [6] was 3.47 G/DL, the “ALKALINE PHOSPHATASE” value [6] was 183 u/L and the “ASPARTATE AMINOTRANSFERASE” value [6] was 56.33 u/L. For the same compound, the “BLOOD UREA NITROGEN” value [6] was 13.33 mg/dL, the CHLORIDE [6] was 106 MEQ/L and the CHOLESTEROL [6] was 63 mg/dL. For the same compound, the “CREATINE PHOSPHOKINASE” value [6] was 125.67 u/L, the CREATININE [6] was 0.5 mg/dL and the GLUCOSE [6] was 154.67 mg/dL. For the same compound, the PHOSPHORUS [6] was 10.7 mg/dL, the SODIUM [6] was 152.33 MEQ/L and the “TOTAL PROTEIN” value [6] was 5.8 G/DL.
